Source: patent US6534523B1, “Hepatitis C inhibitor tri-peptides” (Boehringer Ingelheim (Canada) Ltd., priority 1998, dated 2003)

How the values were obtained:
[1] = molecular target: porcine pancreatic elastase (PPE) (Sus scrofa, UniProt P00772); assay: Specificity assay (Example 40), porcine pancreatic elastase; assay type: biochemical
Protocol: The specificity of the compounds was determined against a variety of serine proteases: human leukocyte elastase, porcine pancreatic elastase and bovine pancreatic α-chymotrypsin and one cysteine protease: human liver cathepsin B. In all cases a 96-well plate format protocol using a calorimetric p-nitroaniline (pNA) substrate specific for each enzyme was used. Each assay included a 1 h enzyme-inhibitor pre-incubation at 30° C. followed by addition of substrate and hydrolysis to ≈30% conversion as measured on a UV Thermomax® microplate reader. Substrate concentrations were kept as low as possible compared to KM to reduce substrate competition. Compound concentrations varied from 300 to 0.06 μM depending on their potency.
The final conditions for each assay were as follows:
50 mM Tris-HCl pH 8, 0.5 M Na2SO4, 50 mM NaCl, 0.1 mM EDTA, 3% DMSO, 0.01% Tween-20 with;
[100 μM Succ-AAPF-pNA and 250 pM α-chymotrypsin], [133 μM Succ-AAA-pNA and 8 nM porcine elastase], [133 μM Succ-AAV-pNA and 8 nM leukocyte elastase]; or […]
After 60 min pre-incubation at 30° C., 20 μL of substrate solution (50 mM Tris-HCl, pH 8, 0.5 M Na2SO4, 50 mM NaCl, 0.1 mM EDTA, 665 μM Succ-AAA-pNA) were added to each well and the reaction was further incubated at 30° C. for 60 min after which time the absorbance was read on the UV Thermomax® plate reader. […]
The percentage of inhibition was calculated using the formula: […]

[2] = molecular target: HCV NS3 protease (UniProt P26663); assay type: biochemical, HCV genotype 1b; design: rows headed: IC50 (μM); IC50 (μM); conditions: Table 6
HCV NS3 protease, sequence (P26663 1027-1206, other chains not shown): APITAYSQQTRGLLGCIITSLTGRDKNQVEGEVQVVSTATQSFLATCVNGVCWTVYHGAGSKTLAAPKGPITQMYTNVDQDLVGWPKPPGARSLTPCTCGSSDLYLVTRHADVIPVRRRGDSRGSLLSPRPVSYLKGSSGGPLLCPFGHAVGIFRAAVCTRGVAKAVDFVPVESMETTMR

porcine pancreatic elastase (PPE), sequence (P00772 27-266): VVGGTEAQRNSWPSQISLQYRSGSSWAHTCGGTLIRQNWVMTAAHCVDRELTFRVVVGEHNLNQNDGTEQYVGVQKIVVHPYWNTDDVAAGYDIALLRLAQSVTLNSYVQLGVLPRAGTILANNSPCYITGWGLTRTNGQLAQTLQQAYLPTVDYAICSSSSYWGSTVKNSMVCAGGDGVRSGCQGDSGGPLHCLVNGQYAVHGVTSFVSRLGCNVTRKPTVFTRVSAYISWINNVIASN

## C=C[C@@H]1C[C@]1(NC(=O)[C@@H]1C[C@@H](Oc2cc(-c3ccccc3)nc3cc(OC)ccc23)CN1C(=O)[C@@H](NC(=O)OC(C)(C)C)C(C)C)C(=O)O [compound 601]
[1]
  IC50: > 75000 nM
[2]
  IC50: 50 nM
